In US10080812B2, “Radioactive iodine labeled pyrido[1,2-a]benzoimidazole derivative compound” (priority 2015, dated 2018):
“And” between values parts separate entries of the source, which are not always exact repeats. Identical values can stand only once.

Columns and labels:
tau = experiment: In vitro autoradiography using autopsied brain tissue sections of an Alzheimer's disease patient (temporal lobe); type: binding, human
Method: (§1) Autopsied brain tissue sections of an Alzheimer's disease (AD) patient (sections from a frontal lobe site and a temporal lobe site, 6 μm) were used, which were provided from Graduate School of Medicine, Kyoto University. Deparaffinization treatment was performed by washing with xylene (15 min×2), ethanol (1 min×2), a 90 vol % aqueous ethanol solution (1 min×1), an 80 vol % aqueous ethanol solution (1 min×1), a 70 vol % aqueous ethanol solution (1 min×1), and purified water (2.5 min×2). A 10 vol % or 50 vol % aqueous ethanol solution of each of [^125I]BIP-1 to -4 (370 kBq/mL) obtained by the method shown in Example 9 was added thereto, and the tissue sections were incubated at room temperature for 2 hours. The tissue sections were washed with a 50 vol % aqueous ethanol solution (2 hr×1), then exposed to an imaging plate (BAS-SR2025 manufactured by Fujifilm Corp.) for 12 hours, and analyzed using a bioimaging analyzer (bioimaging analyzer BAS-5000 manufactured by Fujifilm Corp.). Multi Gauge manufactured by Fujifilm Corp. was used in quantitative analysis.
Senile plaque (SP) and neurofibrillary tangle (NFT) were stained using sections near the brain sections used in autoradiography. An anti-Aβ1-42 monoclonal antibody (BC05, manufactured by Wako Pure Chemical Industries, Ltd.) was used as a primary antibody in the immunostaining of SP, and an anti-phosphorylated tau monoclonal antibody (AT8, manufactured by Thermo Fisher Scientific Inc.) was used as an antibody in the immunostaining of NFT. Deparaffinization treatment was performed by washing with xylene (15 min×2), ethanol (1 min×2), a 90 vol % aqueous ethanol solution (1 min×1), an 80 vol % aqueous ethanol solution (1 min×1), a 70 vol % aqueous ethanol solution (1 min×1), and purified water (2.5 min×2). The antigens were retrieved by autoclaving (15 min) in a 0.01 mol/L citrate buffer solution (pH 6.0) and formic acid treatment (5 min). The tissue sections were washed with running water (5 min) and then washed with PBS-Tween 20 (2 min×1). The tissue sections were reacted with primary antibody solutions at room temperature for 1 hour and then washed with PBS-Tween 20 (5 min×3). The tissue sections were reacted with Histofine Simple Stain MAX-PO (MULTI) (manufactured by Nichirei Biosciences Inc.) at room temperature for 30 minutes and then washed with PBS-Tween 20 (3 min×3) and TBS (5 min×1). Finally, the tissue sections were reacted with a DAB solution at room temperature for 1 minute. The tissue sections were washed with distilled water (1 min×1) to terminate the reaction. The brain tissue sections were mounted on slides and then observed under a microscope (BZ-9000 manufactured by Keyence Corporation).

amyloid β protein (Aβ) = molecular target: T1, amyloid β protein (Aβ) (Homo sapiens, UniProt P05067); experiment: In vitro autoradiography using autopsied brain tissue sections of an Alzheimer's disease patient (frontal lobe); type: binding; conditions: frontal lobe sites a-d, only Aβ accumulates
T1 construct: from tissue; host or cells: autopsied AD patient brain, frontal lobe, 6 µm paraffin sections (Graduate School of Medicine, Kyoto University)
T1 sequence (P05067 672-713 limits assumed): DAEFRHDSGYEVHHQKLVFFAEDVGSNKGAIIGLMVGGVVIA
Method: as §1
Senile plaque (SP) and neurofibrillary tangle (NFT) were stained using sections near the brain sections used in autoradiography. An anti-Aβ1-42 monoclonal antibody (BC05, manufactured by Wako Pure Chemical Industries, Ltd.) was used as a primary antibody in the immunostaining of SP, and an anti-phosphorylated tau monoclonal antibody (AT8, manufactured by Thermo Fisher Scientific Inc.) was used as an antibody in the immunostaining of NFT. Deparaffinization treatment was performed by washing with xylene (15 min×2), ethanol (1 min×2), a 90 vol % aqueous ethanol solution (1 min×1), an 80 vol % aqueous ethanol solution (1 min×1), a 70 vol % aqueous ethanol solution (1 min×1), and purified water (2.5 min×2). The antigens were retrieved by autoclaving (15 min) in a 0.01 mol/L citrate buffer solution (pH 6.0) and formic acid treatment (5 min). The tissue sections were washed with running water (5 min) and then washed with PBS-Tween 20 (2 min×1). […]

[1] = Comparison of intracerebral kinetics in mice; type: in vivo, ddY male mice; conditions: for radioactivity in the brain: i.v. tail vein
Method: (§2) Each of [^125I]BIP-1 to -4 obtained by the method shown in Example 9 was diluted with saline containing 10 vol % ethanol and 0.1 vol % Tween 80. Each of [^125I]BIP-1 to -4 was administered to a group of 5-week-old ddY male mice (26 to 28 g; each group involved 5 mice) from the tail veins thereof at 25.0 to 37.5 kBq (100 μL) per mouse. After 2, 10, 30, or 60 minutes, the mice were slaughtered. After blood collection, the brains were taken out, and their weights and radioactivity were measured. As for [^125I]BIP-3, the principal organs were also excised, and their weights and radioactivity were measured.

[2] = In vivo radioactivity distribution experiment; design: species or system ddY male mice; conditions: mouse; for radioactivity in Blood / radioactivity in Brain / radioactivity in Heart / radioactivity in Intestine / radioactivity in Kidneys / radioactivity in Liver / radioactivity in Lungs / radioactivity in Pancreas / radioactivity in Spleen / radioactivity in Stomach / radioactivity in Thyroid gland: i.v.
Method: as §2

[3] = Stability evaluation in plasma; type: in vitro ADME, ddY mouse; conditions: 37° C., 1 hour
Method: Blood was collected from the heart of a ddY mouse (5 weeks old, body weight: 25 to 28 g) under anesthesia with isoflurane. The collected blood was fractionated by centrifugation at 4000×g for 10 minutes to recover a supernatant. [^125I]BIP-3 obtained by the method shown in Example 9 (188 kBq, 10.0 μL, ethanol solution) and the mouse plasma sample (200 μL) were mixed. The mixture was incubated at 37° C. for 1 hour, and acetonitrile (400 μL) was added thereto, followed by fractionation by centrifugation at 4000×g for 10 minutes. The supernatant was recovered, treated with Cosmonice Filter (S) (0.45 μm, 4 mm) (Nacalai Tesque, Inc.), and then analyzed by reverse phase HPLC. Analytical conditions for HPLC were the same as the conditions used in Example 9.

[4] = Log P value measurement (1-octanol/phosphate buffer); type: physicochemical; conditions: 1-octanol / 0.1 mol/L phosphate buffer solution pH 7.4
Method: Each of [^125I]BIP-1 to -4 (125 kBq) obtained by the method shown in Example 9 was added to a centrifuge tube containing 1-octanol (3.00 mL) and a 0.1 mol/L phosphate buffer solution (pH 7.4, 3.00 mL), vortexed for 2 minutes, and then centrifuged at 4,000×g for 10 minutes. 500 μL of a solution was collected from each layer, and the radioactivity thereof was then measured. A partition coefficient was determined from the 1-octanol/phosphate buffer solution ratio of radioactivity.

[5] = Metabolite analysis in blood; type: in vivo, ddY mouse; conditions: i.v.; for Proportion of parent compound in blood: mouse plasma, mean±SD n=3
Method: A 5-week-old male ddY mouse was used as a normal mouse. [^123I]BIP-3 obtained by the method shown in Example 10, which was contained in saline containing 0.1 vol % Tween 80 and 10 vol % ethanol, was administered from the tail vein (3.70 MBq, 100 μL). 2 minutes, 10 minutes, or 30 minutes after administration, the mouse was slaughtered, and blood was collected into a test tube with an inner wall coated with Heparin Sodium Injection (manufactured by Nipro Pharma Corp.). After radioactivity measurement, the blood was centrifuged at 4000×g at 4° C. for 5 minutes and separated into plasma and cell components. To the obtained plasma, a 2-fold volume of methanol was added for protein denaturation, and the mixture was centrifuged at 4000×g at 4° C. for 5 minutes. The obtained supernatant was passed through Cosmonice Filter (S) (0.45 μm, 4 mm) (Nacalai Tesque, Inc.) and analyzed by reverse phase HPLC. Analytical conditions for HPLC were the same as the conditions used in Example 9.

[6] = Metabolite analysis in brain; type: in vivo, ddY mouse; conditions: mouse brain, 2 min after i.v. administration
Method: A 5-week-old male ddY mouse was used as a normal mouse. [^123I]BIP-3 obtained by the method shown in Example 10, which was contained in saline containing 0.1 vol % Tween 80 and 10 vol % ethanol, was administered from the tail vein (3.70 MBq, […]). After 2 minutes, the mouse was slaughtered, and the brain was excised, homogenized in methanol (2.00 mL) and TBS (2.00 mL), and centrifuged at 4000×g at 4° C. for 10 minutes, followed by the collection of a supernatant. The obtained supernatant was passed through Cosmonice Filter (S) (0.45 μm, 4 mm) (Nacalai Tesque, Inc.) and analyzed by reverse phase HPLC. Analytical conditions for HPLC were the same as the conditions used in Example 9.

[125I]c1ccc2c(c1)nc1ccccn12 [[^125I]BIP-3, 7-[^125I]iodobenzo[4,5]imidazo[1,2-a]pyridine]
autoradiography images compared with [125I]BIP-1 and [125I]BIP-2 (tau; temporal and frontal lobe sections): images equivalent to [^125I]BIP-1 and [^125I]BIP-2
radioactivity accumulation to the temporal lobe (quantitative analysis) (tau; temporal lobe sites e-j, compared with frontal lobe): higher radioactivity accumulation
radioactivity accumulation on temporal lobe section compared with immunostaining of tau and Aβ (tau; temporal lobe, AT8 and BC05 immunostaining): consistent with the accumulation of tau
radioactivity accumulation to the frontal lobe (quantitative analysis) (amyloid β protein (Aβ)): low radioactivity accumulation
radioactivity in the brain ([1]; mouse, 2 min after administration): 4.74 % ID/g
radioactivity in the brain ([1]; mouse, 10 min after administration): 0.65 % ID/g
radioactivity in the brain ([1]; mouse, 30 min after administration): 0.12 % ID/g
radioactivity in the brain ([1]; mouse, 60 min after administration): 0.06 % ID/g
intracerebral kinetics ([1]; mouse, i.v., 2-60 min): favorable intracerebral kinetics
Brain2 min/60 min ([1]; ratio of radioactivity in the brain between 2 and 60 min after administration): 79.0
radioactivity in Blood ([2]; 2 min): 5.20 (0.44) % ID/g
radioactivity in Brain ([2]; 2 min): 4.74 (0.57) % ID/g
radioactivity in Heart ([2]; 2 min): 7.66 (1.21) % ID/g
radioactivity in Intestine ([2]; 2 min): 5.41 (0.62) % ID/g
radioactivity in Kidneys ([2]; 2 min): 23.7 % ID/g and 23.7 (2.44) % ID/g
radioactivity in Liver ([2]; 2 min): 19.9 % ID/g and 19.9 (1.39) % ID/g
radioactivity in Lungs ([2]; 2 min): 29.7 (4.63) % ID/g
radioactivity in Pancreas ([2]; 2 min): 5.36 (0.91) % ID/g
radioactivity in Spleen ([2]; 2 min): 4.76 (0.39) % ID/g
radioactivity in Stomach ([2]; 2 min): 2.70 (0.56) % ID
radioactivity in Thyroid gland ([2]; 2 min): 0.09 (0.03) % ID
radioactivity in Blood ([2]; 10 min): 2.94 (0.41) % ID/g
radioactivity in Brain ([2]; 10 min): 0.65 (0.07) % ID/g
radioactivity in Heart ([2]; 10 min): 1.66 (0.75) % ID/g
radioactivity in Intestine ([2]; 10 min): 11.6 (2.43) % ID/g
radioactivity in Kidneys ([2]; 10 min): 12.2 (1.55) % ID/g
radioactivity in Liver ([2]; 10 min): 14.4 (2.14) % ID/g
radioactivity in Lungs ([2]; 10 min): 6.32 (1.16) % ID/g
radioactivity in Pancreas ([2]; 10 min): 1.49 (0.47) % ID/g
radioactivity in Spleen ([2]; 10 min): 1.34 (0.28) % ID/g
radioactivity in Stomach ([2]; 10 min): 6.73 (1.64) % ID
radioactivity in Thyroid gland ([2]; 10 min): 0.06 (0.02) % ID
radioactivity in Blood ([2]; 30 min): 1.30 (0.16) % ID/g
radioactivity in Brain ([2]; 30 min): 0.12 (0.01) % ID/g
radioactivity in Heart ([2]; 30 min): 0.97 (0.26) % ID/g
radioactivity in Intestine ([2]; 30 min): 21.4 (5.69) % ID/g
radioactivity in Kidneys ([2]; 30 min): 10.3 (5.11) % ID/g
radioactivity in Liver ([2]; 30 min): 6.29 (0.45) % ID/g
radioactivity in Lungs ([2]; 30 min): 1.91 (0.29) % ID/g
radioactivity in Pancreas ([2]; 30 min): 0.78 (0.47) % ID/g
radioactivity in Spleen ([2]; 30 min): 0.58 (0.16) % ID/g
radioactivity in Stomach ([2]; 30 min): 5.34 (1.26) % ID
radioactivity in Thyroid gland ([2]; 30 min): 0.13 (0.03) % ID
radioactivity in Blood ([2]; 60 min): 1.11 (0.53) % ID/g
radioactivity in Brain ([2]; 60 min): 0.06 (0.01) % ID/g
radioactivity in Heart ([2]; 60 min): 0.83 (0.24) % ID/g
radioactivity in Intestine ([2]; 60 min): 29.4 % ID/g and 29.4 (7.49) % ID/g
radioactivity in Kidneys ([2]; 60 min): 8.99 (4.47) % ID/g
radioactivity in Liver ([2]; 60 min): 5.25 (0.95) % ID/g
radioactivity in Lungs ([2]; 60 min): 1.45 (0.23) % ID/g
radioactivity in Pancreas ([2]; 60 min): 0.75 (0.30) % ID/g
radioactivity in Spleen ([2]; 60 min): 0.71 (0.11) % ID/g
radioactivity in Stomach ([2]; 60 min): 4.42 (2.43) % ID
radioactivity in Thyroid gland ([2]; 60 min): 0.22 % ID and 0.22 (0.03) % ID
deiodination in living body (from thyroid gland uptake) ([2]; up to 60 min after administration): marked deiodination does not occur
stability in mouse plasma (reverse phase HPLC) [3]: only the peak of the parent compound was detected
Log P [4]: 3.22

[123I]c1ccc2c(c1)nc1ccccn12 [[^123I]BIP-3, 7-[^123I]iodobenzo[4,5]imidazo[1,2-a]pyridine]
Proportion of parent compound in blood ([5]; 2 min after administration): 83.1 ± 7.7
Proportion of parent compound in blood ([5]; 10 min after administration): 23.6 ± 2.2
Proportion of parent compound in blood ([5]; 30 min after administration): 8.4 ± 1.1
metabolite formation in blood ([5]; mouse, HPLC of plasma): forms a highly water-soluble metabolite
metabolite analysis of brain homogenates (reverse phase HPLC) [6]: only the signal peak of the parent compound was detected
